Reference: ChEMBL document CHEMBL5678818, “Discovery of potent SOS1 inhibitors that block RAS activation via disruption of the RAS-SOS1 interaction” (Proc Natl Acad Sci U S A, 2019)

Tests used:
[1] = biological target: Mitogen-activated protein kinase 1 (Homo sapiens) (UniProt P28482); assay: Inhibition of ERK2 (unknown origin) assessed as residual activity at 1000 nM by KINOMEscan analysis relative to control
[2] = biological target: T1, Dual specificity mitogen-activated protein kinase kinase 6 (Homo sapiens) (UniProt P52564); assay: Inhibition of MEK6 (unknown origin) assessed as residual activity at 1000 nM by KINOMEscan analysis relative to control
T1 sequence (whole entry): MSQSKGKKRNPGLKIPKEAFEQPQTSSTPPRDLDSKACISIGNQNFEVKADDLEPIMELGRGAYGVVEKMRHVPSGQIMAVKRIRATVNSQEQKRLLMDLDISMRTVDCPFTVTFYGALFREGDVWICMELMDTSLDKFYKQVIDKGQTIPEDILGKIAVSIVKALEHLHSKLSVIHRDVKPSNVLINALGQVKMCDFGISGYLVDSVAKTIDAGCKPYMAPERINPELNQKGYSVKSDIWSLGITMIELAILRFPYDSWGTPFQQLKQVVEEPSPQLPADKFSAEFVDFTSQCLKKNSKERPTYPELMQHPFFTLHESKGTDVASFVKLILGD

[3] = biological target: Serine/threonine-protein kinase PLK3 (Homo sapiens) (UniProt Q9H4B4); assay: Inhibition of PLK3 (unknown origin) assessed as residual activity at 1000 nM by KINOMEscan analysis relative to control
[4] = test system: Tyrosine-protein kinase ABL1 (Homo sapiens), P00519 [H396P]; assay: Inhibition of phosphorylated ABL1 H396P mutant (unknown origin) assessed as residual activity at 1000 nM by KINOMEscan analysis relative to control
[5] = biological target: T2, Inhibitor of nuclear factor kappa-B kinase subunit alpha (Homo sapiens) (UniProt O15111); assay: Inhibition of IKK-alpha (unknown origin) assessed as residual activity at 1000 nM by KINOMEscan analysis relative to control
T2 sequence (whole entry): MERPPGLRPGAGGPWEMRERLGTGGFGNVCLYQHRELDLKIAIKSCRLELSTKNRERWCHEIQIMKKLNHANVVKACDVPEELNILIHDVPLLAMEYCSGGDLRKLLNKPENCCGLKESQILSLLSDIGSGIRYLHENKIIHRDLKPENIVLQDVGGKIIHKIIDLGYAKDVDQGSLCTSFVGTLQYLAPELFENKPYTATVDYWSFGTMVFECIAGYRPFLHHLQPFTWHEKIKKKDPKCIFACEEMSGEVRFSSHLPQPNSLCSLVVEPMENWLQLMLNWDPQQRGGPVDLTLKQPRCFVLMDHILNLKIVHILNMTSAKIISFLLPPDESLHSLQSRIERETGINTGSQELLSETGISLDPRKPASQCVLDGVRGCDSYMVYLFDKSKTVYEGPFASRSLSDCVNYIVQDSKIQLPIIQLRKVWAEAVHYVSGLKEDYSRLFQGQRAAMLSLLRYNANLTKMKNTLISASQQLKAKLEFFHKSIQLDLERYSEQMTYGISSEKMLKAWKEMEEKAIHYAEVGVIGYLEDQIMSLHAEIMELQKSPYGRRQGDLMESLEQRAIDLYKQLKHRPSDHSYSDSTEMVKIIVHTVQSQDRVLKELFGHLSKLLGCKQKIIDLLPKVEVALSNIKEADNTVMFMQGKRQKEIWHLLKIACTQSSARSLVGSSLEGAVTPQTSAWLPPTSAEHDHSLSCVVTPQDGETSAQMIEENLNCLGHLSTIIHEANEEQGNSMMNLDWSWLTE

[6] = biological target: T3, Serine/threonine-protein kinase TAO3 (Homo sapiens) (UniProt Q9H2K8); assay: Inhibition of TAOK3 (unknown origin) assessed as residual activity at 1000 nM by KINOMEscan analysis relative to control
T3 sequence (whole entry): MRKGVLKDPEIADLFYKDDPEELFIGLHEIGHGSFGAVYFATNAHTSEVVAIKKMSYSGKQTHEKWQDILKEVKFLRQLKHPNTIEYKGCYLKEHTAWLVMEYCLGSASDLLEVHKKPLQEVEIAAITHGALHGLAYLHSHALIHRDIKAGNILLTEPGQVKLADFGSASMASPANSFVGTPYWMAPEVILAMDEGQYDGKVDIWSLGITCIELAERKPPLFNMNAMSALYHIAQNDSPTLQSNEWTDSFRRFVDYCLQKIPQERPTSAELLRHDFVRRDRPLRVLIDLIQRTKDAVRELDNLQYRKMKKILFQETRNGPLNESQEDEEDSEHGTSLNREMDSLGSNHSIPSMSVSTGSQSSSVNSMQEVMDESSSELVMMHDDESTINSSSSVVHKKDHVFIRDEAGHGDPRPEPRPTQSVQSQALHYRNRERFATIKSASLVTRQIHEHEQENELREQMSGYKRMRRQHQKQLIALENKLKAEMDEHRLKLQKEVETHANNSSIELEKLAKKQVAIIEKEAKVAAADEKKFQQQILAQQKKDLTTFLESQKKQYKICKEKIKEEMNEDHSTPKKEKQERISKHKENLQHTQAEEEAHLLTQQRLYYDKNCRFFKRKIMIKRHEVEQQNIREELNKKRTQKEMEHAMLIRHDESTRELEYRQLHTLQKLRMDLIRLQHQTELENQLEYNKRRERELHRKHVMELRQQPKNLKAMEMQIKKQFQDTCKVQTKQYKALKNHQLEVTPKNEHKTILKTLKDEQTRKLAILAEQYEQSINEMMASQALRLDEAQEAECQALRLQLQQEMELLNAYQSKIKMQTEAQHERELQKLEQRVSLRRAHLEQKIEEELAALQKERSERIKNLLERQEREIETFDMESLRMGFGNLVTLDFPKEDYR

[7] = biological target: Homeodomain-interacting protein kinase 3 (Homo sapiens) (UniProt Q9H422); assay: Inhibition of HIPK3 (unknown origin) assessed as residual activity at 1000 nM by KINOMEscan analysis relative to control
Sequence of Homeodomain-interacting protein kinase 3 (Homo sapiens) (Q9H422 whole entry, looked up): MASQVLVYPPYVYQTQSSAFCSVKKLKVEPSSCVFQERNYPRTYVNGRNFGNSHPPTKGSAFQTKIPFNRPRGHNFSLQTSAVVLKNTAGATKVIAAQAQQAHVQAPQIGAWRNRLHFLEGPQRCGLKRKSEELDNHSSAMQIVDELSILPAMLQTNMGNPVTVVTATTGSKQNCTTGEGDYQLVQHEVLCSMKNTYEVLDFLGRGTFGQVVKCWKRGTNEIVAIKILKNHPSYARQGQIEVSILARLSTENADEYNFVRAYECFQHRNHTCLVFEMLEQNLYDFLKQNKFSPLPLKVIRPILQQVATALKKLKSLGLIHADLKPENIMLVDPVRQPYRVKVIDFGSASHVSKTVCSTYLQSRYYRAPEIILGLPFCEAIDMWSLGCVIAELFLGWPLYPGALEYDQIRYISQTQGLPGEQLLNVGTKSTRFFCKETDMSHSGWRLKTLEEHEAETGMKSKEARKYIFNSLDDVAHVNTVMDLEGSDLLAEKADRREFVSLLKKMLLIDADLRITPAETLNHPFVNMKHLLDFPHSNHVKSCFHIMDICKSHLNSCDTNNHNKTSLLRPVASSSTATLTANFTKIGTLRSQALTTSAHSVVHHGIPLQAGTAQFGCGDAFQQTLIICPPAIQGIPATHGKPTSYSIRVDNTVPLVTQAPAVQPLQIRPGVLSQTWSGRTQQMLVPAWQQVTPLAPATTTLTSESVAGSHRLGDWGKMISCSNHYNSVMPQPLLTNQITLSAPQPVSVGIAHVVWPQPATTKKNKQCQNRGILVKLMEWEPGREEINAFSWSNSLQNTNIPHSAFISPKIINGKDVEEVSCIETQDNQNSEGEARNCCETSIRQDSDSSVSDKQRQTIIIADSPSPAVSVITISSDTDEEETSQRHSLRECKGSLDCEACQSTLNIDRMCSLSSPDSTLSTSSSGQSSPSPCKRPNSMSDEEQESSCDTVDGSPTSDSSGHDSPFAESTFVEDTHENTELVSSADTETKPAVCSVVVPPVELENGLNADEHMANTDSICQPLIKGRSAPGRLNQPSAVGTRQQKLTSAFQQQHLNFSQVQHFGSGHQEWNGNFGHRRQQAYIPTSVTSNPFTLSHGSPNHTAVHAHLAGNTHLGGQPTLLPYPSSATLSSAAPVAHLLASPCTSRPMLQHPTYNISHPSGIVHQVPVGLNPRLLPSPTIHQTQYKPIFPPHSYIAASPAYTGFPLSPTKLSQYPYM

Sequence of Serine/threonine-protein kinase PLK3 (Homo sapiens) (Q9H4B4 whole entry, looked up): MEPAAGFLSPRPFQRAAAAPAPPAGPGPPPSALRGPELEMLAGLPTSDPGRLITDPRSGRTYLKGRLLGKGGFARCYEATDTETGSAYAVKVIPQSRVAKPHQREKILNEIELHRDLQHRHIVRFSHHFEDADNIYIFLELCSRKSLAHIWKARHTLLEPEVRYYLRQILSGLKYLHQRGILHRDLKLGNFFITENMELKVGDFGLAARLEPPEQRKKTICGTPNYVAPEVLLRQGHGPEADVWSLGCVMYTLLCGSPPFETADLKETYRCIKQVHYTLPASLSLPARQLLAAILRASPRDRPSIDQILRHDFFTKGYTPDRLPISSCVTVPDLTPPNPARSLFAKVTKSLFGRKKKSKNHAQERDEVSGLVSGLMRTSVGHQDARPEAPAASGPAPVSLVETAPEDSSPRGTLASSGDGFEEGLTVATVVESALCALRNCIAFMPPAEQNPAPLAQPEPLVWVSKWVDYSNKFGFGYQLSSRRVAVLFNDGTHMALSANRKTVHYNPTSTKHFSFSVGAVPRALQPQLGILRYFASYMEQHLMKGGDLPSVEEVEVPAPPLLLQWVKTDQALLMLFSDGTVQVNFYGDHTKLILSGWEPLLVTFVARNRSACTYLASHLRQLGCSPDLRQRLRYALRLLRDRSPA
Sequence of Mitogen-activated protein kinase 1 (Homo sapiens) (P28482 whole entry): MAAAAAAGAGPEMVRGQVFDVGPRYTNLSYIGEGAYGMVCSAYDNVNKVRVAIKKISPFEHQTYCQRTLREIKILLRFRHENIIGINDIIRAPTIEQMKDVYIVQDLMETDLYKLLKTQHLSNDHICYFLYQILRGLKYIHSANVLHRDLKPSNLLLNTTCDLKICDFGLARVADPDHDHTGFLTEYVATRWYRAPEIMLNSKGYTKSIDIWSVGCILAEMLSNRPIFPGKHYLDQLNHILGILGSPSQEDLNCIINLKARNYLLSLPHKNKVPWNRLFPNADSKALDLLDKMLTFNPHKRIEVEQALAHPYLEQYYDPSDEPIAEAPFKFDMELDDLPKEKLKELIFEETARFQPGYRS

## COc1cc2nc(C)nc(N[C@H](C)c3cccc(-c4cn[nH]c4)c3)c2cc1OC
[1]
  Activity: 90%
[2]
  Activity: 91%
[3]
  Activity: 88%
[4]
  Activity: 91%
[5]
  Activity: 81%
[6]
  Activity: 100%
[7]
  Activity: 69%

## COc1cc2ncnc(N[C@H](C)c3cccc4ccccc34)c2cc1OC
[1]
  Activity: 96%
[2]
  Activity: 100%
[3]
  Activity: 81%
[4]
  Activity: 93%
[5]
  Activity: 70%
[6]
  Activity: 79%
[7]
  Activity: 88%
